In patent publication US10238667B2, “Vitamin D receptor/SMAD genomic circuit gates fibrotic response” (Salk Institute for Biological Studies, priority 2013, dated 2019):

Columns and labels:
C57BL/6J mice = test: CCl4 model of liver injury and fibrosis; type: in vivo, mouse
Method: LX-2 cells, a generous gift from Professor Scott Friedman, Mount Sinai School of Medicine, New York, N.Y., were cultured as described previously (Xu et al., 2005). […] For luciferase assays, DNA transfections were performed using Fugene 6 (Roche) following the manufacturer's instructions. […] RT-qPCR, total RNA was purified following TRIzol extraction and treated with DNaseI (Invitrogen). cDNA synthesis was carried out with iScript RT Supermix (Biorad). Quantitative PCR was performed in technical triplicates using SYBR Green reagent (Biorad). The relative standard curve method was used for quantitation (Biorad). Expression levels were calculated by normalization to either Gapdh (mouse) or U36B4 (human) quantities.
8 week-old male C57BL/6J mice were IP injected with 0.5 ml/kg body weight CCl4 (1:50 v/v in corn oil from Sigma) or vehicle (DMSO in corn oil) three times a week for 4 weeks. […] The animals were terminated 72 hours after the final CCl4 injection and whole livers and serum were collected for histological, cytological, biochemical and molecular analyses.
5 μm sections of formalin-fixed liver were stained following standard H&E and Sirius Red methods and reviewed by a pathologist who was blinded to the experimental conditions. Fibrosis was scored using the Ishak modified histological activity index (HAI) scoring system. Fibrosis was also quantified using Image J software on 10 non-contiguous Sirius Red stained sections. All images were obtained using a high-resolution Leica DFC420 digital camera mounted on an Olympus microscope equipped with ×4/0.13, ×10/0.30, ×20/0.50 and ×40/0.75 UplanFL N plan objective lenses and processed with the Leica Application Suite. Hepatic hydroxyproline content was measured using a commercial colorimetric assay from Biovision (K555-100).

LX-2 cells = test: TGFβ1-induced fibrotic gene expression (RT-qPCR, siRNA) in LX-2 cells; type: cell-based, human
Method: FIGS. 4A-4C. VDR Signaling Suppresses TGFβ-induced Pro-Fibrotic Genes. (A) Heat map comparing 519 differentially expressed genes in freshly isolated rat HSCs (quiescent HSCs, Q-HSCs), activated HSCs (A-HSCs, 3 days culture on plastic) and cells cultures in the presence of 10 nM 1,25(OH)2D3 (A-HSCs+1,25(OH)2D3). Euclidean clustering of both rows and columns using log2 transformed microarray expression data, n=2 per treatment group. (B) Heat map of fold expression change of genes involved in fibrosis in primary rat HSCs treated with TGFβ1 (1 ng/ml) and TGFβ1 plus 1,25(OH)2D3 (100 nM) for 24 hours, n=2 per treatment group. […] Data represents the mean±SEM of at least three independent experiments performed in triplicate. Asterisks denote statistically significant differences (Student's unpaired t-test, *p<0.05, **p<0.01).
LX-2 cells, a generous gift from Professor Scott Friedman, Mount Sinai School of Medicine, New York, N.Y., were cultured as described previously (Xu et al., 2005). […] For luciferase assays, DNA transfections were performed using Fugene 6 (Roche) following the manufacturer's instructions. […] Quantitative PCR was performed in technical triplicates using SYBR Green reagent (Biorad). The relative standard curve method was used for quantitation (Biorad). Expression levels were calculated by normalization to either Gapdh (mouse) or U36B4 (human) quantities. […]

SMAD3 [1] = test: Immunoprecipitation/Western blot of total and phosphorylated SMAD3 in LX-2 cells; type: cell-based, human; conditions: TGFβ1 1 ng/ml +/- calcipotriol 100 nM
Method: Nuclear extracts were immunoprecipitated using a SMAD2/3 antibody prior to Western blot analysis. Asterisks denote non-specific bands.
The whole cell lysates were obtained through RIPA buffer lysis while isolation of nuclear extract was performed as previously reported (Ding et al., 2008). Total and nuclear SMAD3 were immunoprecipitated from LX-2 whole cell and nuclear extracts, respectively, using anti-SMAD2/3 antibody (Santa Cruz, sc-133098) followed by SDS-PAGE and western blot detection by anti-SMAD3 (Cell Signaling, 9523) and anti-pSMAD3 (Cell Signaling, 9520) specific antibodies.

[2] = system: CBP, p300 and acetylated histone H3; test: ChIP-qPCR of CBP, p300 and acetylated histone H3 at COL1A1 regulatory region in LX-2 cells; type: cell-based, human; conditions: co-treated with calcipotriol 100 nM and TGFβ1 1 ng/ml
Excerpt: FIGS. 12A-12B. Coactivator/Corepressor Recruitment and Histone H3 Acetylation Status at Regulatory Regions of Fibrotic Genes Co-occupied by VDR and SMAD. […] The level of occupancy is expressed relative to input chromatin in LX-2 cells treated with corresponding conditions. Data represents the mean+/−SEM of at least three independent experiments performed in triplicate. Asterisks denote statistically significant differences (Student's t test, *p<0.05). […] The level of occupancy is expressed relative to input chromatin in LX-2 cells treated with corresponding conditions.
(§1) Cells were then harvested for ChIP assay. The experimental procedure for ChIP was as previously described (Barish et al., 2010). Briefly, after fixation, nuclei from LX-2 cells were isolated, lysed and sheared with a Diagenode Bioruptor to yield DNA fragment sizes of 200-1000 base pairs followed by immunoprecipitation using antibodies listed below: normal rabbit IgG (Santa Cruz, sc-2027), VDR (Santa Cruz, sc-1008), SMAD3 (Abcam, ab28379) and histone H3 (Abcam, ab1791). For ChIP-Re-ChIP, after first ChIP, the immunoprecipitated DNA-protein complex was eluted from beads using 10 mM DTT, diluted 100-fold then re-immunoprecipitated with a second antibody, re-ChIP.

SMAD3 [3] = test: ChIP-qPCR time course of SMAD3 binding at COL1A1 regulatory region #1 in LX-2 cells; type: cell-based, human
Excerpt: FIGS. 14A-14D. VDR/SMAD Genomic Circuit. […] Data represents the mean±SEM of at least three independent experiments performed in triplicate. Asterisks denote statistically significant differences compared to calcipotriol-induced VDR occupancy or TGFβ1-induced SMAD3 occupancy of corresponding time point (Student's unpaired t-test, *p<0.05, **p<0.01). […] Data represents the mean±SEM of at least three independent experiments performed in triplicate. (D) Model depicting proposed VDR/SMAD genomic circuit controlling pro-fibrogenic responses in HSCs.
as §1
Specifically, ChIP-qPCR was employed to monitor binding of VDR and SMAD3 to the cis-regulatory region of COL1A1 at multiple time points (0, 1, 2, 4, 6, 16 hours).

C=C1/C(=C\C=C2/CCC[C@]3(C)[C@@H]([C@H](C)/C=C/[C@@H](O)C4CC4)CC[C@@H]23)C[C@@H](O)C[C@@H]1O [calcipotriol, 1α,24-(OH)2-24-cyclopropyl-D3]
fibrosis (Sirius red staining, hepatic hydroxyproline content, histological fibrotic scoring) (C57BL/6J mice; CCl4 0.5 ml/kg IP 3 times per week, 4 weeks, calcipotriol 20 μg/kg oral gavage co-treatment): significant reduction in fibrosis
serum calcium concentration (C57BL/6J mice; calcipotriol 20 μg/kg oral gavage, 4 weeks): not significantly altered
down-regulation of fibrotic marker genes Col1a1, Tgfb1 and Timp1 (C57BL/6J mice; hepatic gene expression, RT-qPCR, CCl4/calcipotriol co-treated vs CCl4): 50-70%
fibrogenic response in liver (C57BL/6J mice; pre-treated with calcipotriol for 5 weeks prior to CCl4/calcipotriol co-treatment): nearly completely abrogated
fibrotic gene expression (LX-2 cells): potently repressed
calcipotriol-mediated repression of TGFβ1 induced gene expression after loss of VDR (LX-2 cells; siVDR RNAi, Cal 100 nM, TGFβ1 1 ng/ml, 16 hours): abolished
TGFβ1-induced phosphorylation and subsequent nuclear translocation of SMAD3 (SMAD3 [1]): did not significantly affect
TGFβ1 induced recruitment of p300 and CBP and histone H3 hyperacetylation at COL1A1 regulatory region [2]: lost
SMAD3 recruitment reduced (SMAD3 [3]; after 4 hours, TGFβ1 + calcipotriol vs TGFβ1): 70%
time of maximum binding of SMAD3 post-TGFβ1 treatment (SMAD3 [3]; in the presence of calcipotriol 100 nM, TGFβ1 alone maximal at 4 hours): 1 h
